# Results taken from patent US20220296595A1, “CDK INHIBITORS” (QILU REGOR THERAPEUTICS INC., priority 2019, published 2022).
# Target: T1, CDK2/CyclinE1 (Homo sapiens, UniProt P24941)
# T1 construct: purchased SignalChem C29-18G
# Experiment: Assay for inhibition of CDK2/CyclinE1 (Caliper microfluidic kinase assay)
# Assay type: biochemical
# Details: CDK2/CyclinE1, 100 μM ATP; read-out: CDK2 IC50
# Outline: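 Caliper microfluidic mobility-shift assay: 5 nM CDK2/CyclinE1, 100 μM ATP, 5 μM FL-18 peptide (5-FAM-QSPKKG-NH2) in pH 7.5 HEPES buffer with MgCl2, DTT, BSA, Triton X-100. Incubated 3 hours at room temperature, EDTA-stopped; IC50 from 4-parameter sigmoidal fit.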
row,Compound,IC50
1,CNC1CCCN(c2ccc(Nc3ncc(F)c(N4CCc5ncn(C(C)C)c5C4)n3)cc2)C1=O (stereo not shown) [compound 248],0.01 to 0.1 µM
2,CC(C)(C)c1cnn2ccc(-c3ccnc(Nc4ccc(N5C(=O)C6CC5CN6)cn4)n3)cc12 (stereo not shown) [compound 211],< 0.01 µM
3,CC(C)n1cnc2c(F)nc(-c3nc(Nc4ccc(N5CCCC(N(C)C)C5=O)cn4)ncc3F)cc21 (stereo not shown) [compound 300],> 1 µM
4,CC(C)c1cnn2ccc(-c3nc(Nc4ccc(S(C)(=O)=O)cc4)ncc3F)cc12 [compound 6],0.01 to 0.1 µM
5,CC(C)n1cnc2c(F)nc(-c3ccnc(Nc4ccc(N5CCN(CCF)CC5)cn4)n3)cc21 [compound 309],0.1 to 1 µM

# Further lines, results first:
row,IC50,Compound
1,> 1 µM,CNC1CCCN(c2ccc(Nc3nccc(-c4ccn5ncc(C(C)(C)C)c5c4)n3)nc2)C1=O (stereo not shown) [compound 221]
2,0.01 to 0.1 µM,CC(C)(C)c1cnn2ccc(-c3ccnc(Nc4ccc(N5CCCC(N)C5=O)cn4)n3)cc12 (stereo not shown) [compound 220]
3,0.01 to 0.1 µM,CC1(C)COc2c(F)cc(-c3ccnc(Nc4ccc(N5CCCC(N)C5=O)cc4)n3)cc21 (stereo not shown) [compound 263]
4,0.1 to 1 µM,CC(C)c1cnn2ccc(-c3ccnc(Nc4ccc(N5CCCC(N(C)C)C5=O)cc4)n3)cc12 (stereo not shown) [compound 174]
5,0.1 to 1 µM,CNC1CCCN(c2ccc(Nc3nccc(-c4ccn5ncc(C(C)C)c5c4)n3)nc2)C1=O (stereo not shown) [compound 208]
6,< 0.01 µM,CC(C)c1cnn2ccc(-c3ccnc(Nc4ccc(N5CCC(NCCF)CC5=O)cn4)n3)cc12 (stereo not shown) [compound 201]
7,0.1 to 1 µM,CC(C)n1cnc2c(F)nc(-c3ccnc(Nc4ccc(N5CCN(C6CC6)CC5)cn4)n3)cc21 [compound 267]
8,0.01 to 0.1 µM,CC(C)n1cnc2c(F)nc(-c3ccnc(Nc4ccc(N5CCC(N(C)C)C5=O)cc4)n3)cc21 (stereo not shown) [compound 268]
9,< 0.01 µM,CC(C)n1cnc2c1CN(c1nc(Nc3ccc(N4CCCC(N(C)C)C4)cc3)ncc1F)CC2 (stereo not shown) [compound 252]
10,0.01 to 0.1 µM,CNC1CCCN(c2ccc(Nc3nccc(-c4cc5c(ncn5C(C)C)c(F)n4)n3)cc2)C1=O (stereo not shown) [compound 294]

# Same assay, conditions: CDK2/CyclinE1; read-out: CDK2 IC50
row,Compound,IC50
1,CC(C)n1cnc2c(OC(F)F)nc(-c3ccnc(Nc4ccc(N5CCC(N(C)C)CC5=O)cn4)n3)cc21 (stereo not shown) [compound 64],> 1 µM

# System: T47D breast cancer cells
# Experiment: Anti-proliferation assay in T47D cell (Cyquant, day 6)
# Assay type: cell-based, human
# Details: Homo sapiens, T47D, anti-proliferation, T47D cells; read-out: T47D IC50
# Excerpt: T47D is a human breast cancer cell line commonly used in biomedical research involving the hormonal expression of cancer cells. T47D cells are distinct from other human breast cancer cells in that their progesterone receptors (PR) are not regulated by estradiol, a hormone that is abundant within the cells themselves. T47D cells have been employed in studies of the effects of progesterone on breast cancer and the corresponding transcriptional regulation caused by introduced drugs. The cells have been noted to be extremely resistant to estrogens and antiestrogens.
# T47D breast cancer cells from American Type Culture Collection (ATCC, HTB-133) were plated at 3000 cells/well in 96-well plates, and were incubated in RPMI 1640 medium (Gibco, 31800105) with 10% Fetal Bovine Serum (FBS, Biowest, FB-1058) at 37° C., 5% CO2. After overnight incubation, baseline values were measured of the samples from one plate using Cyquant reagent (Invitrogen, C35011) following manufacturer's recommendations. Cells were incubated with the detection reagent for 1 hour at 37° C., and then the fluorescence was measured with excitation at 485 nm and emission at 535 nm using Spectra Max M5 (Molecular Devices, HD-4HYSG3196). Other plates were dosed with compounds at a ten-point dose concentration from 10 μM to 0.51 nM in a 3-fold dilution scheme. On day 6 after compound addition, Cyquant reagent was added and the fluorescence was measured using Spectra Max M5. The IC50 values of the test compound's anti-proliferation activity were determined from the baseline subtracted viability readout curve using Xlfit5/GraphPad Prism 5 software.
row,Compound,IC50
1,CNC1CCCN(c2ccc(Nc3ncc(F)c(N4CCc5ncn(C(C)C)c5C4)n3)cc2)C1=O (stereo not shown) [compound 248],< 0.1 µM
2,CC(C)(C)c1cnn2ccc(-c3ccnc(Nc4ccc(N5C(=O)C6CC5CN6)cn4)n3)cc12 (stereo not shown) [compound 211],0.5 to 1 µM
3,CC(C)n1cnc2c(OC(F)F)nc(-c3ccnc(Nc4ccc(N5CCC(N(C)C)CC5=O)cn4)n3)cc21 (stereo not shown) [compound 64],0.1 to 0.5 µM
4,CC(C)n1cnc2c(F)nc(-c3nc(Nc4ccc(N5CCCC(N(C)C)C5=O)cn4)ncc3F)cc21 (stereo not shown) [compound 300],< 0.1 µM
5,CC(C)c1cnn2ccc(-c3nc(Nc4ccc(S(C)(=O)=O)cc4)ncc3F)cc12 [compound 6],0.5 to 1 µM
6,CC(C)n1cnc2c(F)nc(-c3ccnc(Nc4ccc(N5CCN(CCF)CC5)cn4)n3)cc21 [compound 309],< 0.1 µM

# Now from value to compound:
row,IC50,Compound
1,< 0.1 µM,CNC1CCCN(c2ccc(Nc3nccc(-c4ccn5ncc(C(C)(C)C)c5c4)n3)nc2)C1=O (stereo not shown) [compound 221]
2,< 0.1 µM,CC(C)(C)c1cnn2ccc(-c3ccnc(Nc4ccc(N5CCCC(N)C5=O)cn4)n3)cc12 (stereo not shown) [compound 220]
3,< 0.1 µM,CC1(C)COc2c(F)cc(-c3ccnc(Nc4ccc(N5CCCC(N)C5=O)cc4)n3)cc21 (stereo not shown) [compound 263]
4,0.1 to 0.5 µM,CC(C)c1cnn2ccc(-c3ccnc(Nc4ccc(N5CCCC(N(C)C)C5=O)cc4)n3)cc12 (stereo not shown) [compound 174]
5,< 0.1 µM,CNC1CCCN(c2ccc(Nc3nccc(-c4ccn5ncc(C(C)C)c5c4)n3)nc2)C1=O (stereo not shown) [compound 208]
6,< 0.1 µM,CC(C)c1cnn2ccc(-c3ccnc(Nc4ccc(N5CCC(NCCF)CC5=O)cn4)n3)cc12 (stereo not shown) [compound 201]
7,< 0.1 µM,CC(C)n1cnc2c(F)nc(-c3ccnc(Nc4ccc(N5CCN(C6CC6)CC5)cn4)n3)cc21 [compound 267]
8,< 0.1 µM,CC(C)n1cnc2c(F)nc(-c3ccnc(Nc4ccc(N5CCC(N(C)C)C5=O)cc4)n3)cc21 (stereo not shown) [compound 268]
9,< 0.1 µM,CC(C)n1cnc2c1CN(c1nc(Nc3ccc(N4CCCC(N(C)C)C4)cc3)ncc1F)CC2 (stereo not shown) [compound 252]
10,< 0.1 µM,CNC1CCCN(c2ccc(Nc3nccc(-c4cc5c(ncn5C(C)C)c(F)n4)n3)cc2)C1=O (stereo not shown) [compound 294]

# Target: T2, CDK4/CyclinD1 (Homo sapiens, UniProt P11802)
# T2 construct: purchased Thermofisher PR8064A
# Experiment: Assay for inhibition of CDK4/CyclinD1 (Caliper microfluidic kinase assay)
# Assay type: biochemical
# Details: CDK4/CyclinD1
# Outline: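 Caliper microfluidic mobility-shift assay tracking phosphorylation of 1 μM FL-34 peptide by 1 nM CDK4/CyclinD1 with 200 μM ATP in HEPES pH 7.5 buffer with 10 mM MgCl2. Reaction ran 3 h at room temperature, was stopped with EDTA, and IC50 came from a 4-parameter sigmoidal fit.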
# T2 sequence (P11802 whole entry): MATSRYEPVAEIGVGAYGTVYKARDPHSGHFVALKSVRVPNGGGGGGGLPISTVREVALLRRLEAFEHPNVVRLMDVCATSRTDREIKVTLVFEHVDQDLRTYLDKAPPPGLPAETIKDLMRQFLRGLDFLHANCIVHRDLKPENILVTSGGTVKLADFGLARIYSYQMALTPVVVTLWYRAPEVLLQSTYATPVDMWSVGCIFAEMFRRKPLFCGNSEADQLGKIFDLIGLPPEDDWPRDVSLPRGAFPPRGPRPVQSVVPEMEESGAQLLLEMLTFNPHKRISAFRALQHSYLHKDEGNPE
# T2 sequence (P24385 whole entry partner): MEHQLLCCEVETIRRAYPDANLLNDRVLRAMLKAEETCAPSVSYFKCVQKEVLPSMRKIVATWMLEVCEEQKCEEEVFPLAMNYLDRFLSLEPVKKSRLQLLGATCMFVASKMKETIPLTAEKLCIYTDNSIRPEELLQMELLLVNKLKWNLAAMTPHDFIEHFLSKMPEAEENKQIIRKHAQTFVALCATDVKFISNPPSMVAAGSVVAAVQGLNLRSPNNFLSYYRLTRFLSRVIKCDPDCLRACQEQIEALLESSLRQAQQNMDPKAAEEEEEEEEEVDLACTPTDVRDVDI
row,Compound,IC50
1,COc1nc(-c2nc(Nc3ccc(CN4CCN5CCCC5C4)cn3)ncc2F)cc2c1nc(C)n2C(C)C (stereo not shown) [compound 101],0.01 to 0.1 µM
2,CC(C)n1cnc2c(OC(F)F)nc(-c3ccnc(Nc4ccc(N5CCC(N(C)C)CC5=O)cn4)n3)cc21 (stereo not shown) [compound 64],< 0.01 µM

# Same assay, conditions: CDK4/CyclinD1, 200 μM ATP
row,Compound,IC50
1,CCN1CCN(Cc2ccc(Nc3ncc(F)c(-c4ccn5ncc(C(C)C)c5c4)n3)nc2)CC1 [compound 22],< 0.01 µM
2,C=C(C)c1cnn2ccc(-c3nc(Nc4ccc(CN5CCN(CC)CC5)cn4)ncc3F)cc12 [compound 19],0.01 to 0.1 µM
3,CCN1CCN(Cc2ccc(Nc3ncc(F)c(-c4ccn5ncc(Br)c5c4)n3)nc2)CC1 [compound 20],0.1 to 1 µM
4,O=C1COCCN1c1ccc(Nc2ncc(F)c(-c3ccn4ncc(C5=CCOCC5)c4c3)n2)nc1 [compound 17],0.01 to 0.1 µM
5,CNC1CCCN(c2ccc(Nc3ncc(F)c(N4CCc5ncn(C(C)C)c5C4)n3)cc2)C1=O (stereo not shown) [compound 248],< 0.01 µM
6,CC(C)(C)c1cnn2ccc(-c3ccnc(Nc4ccc(N5C(=O)C6CC5CN6)cn4)n3)cc12 (stereo not shown) [compound 211],< 0.01 µM
7,CC(C)n1cnc2c(F)nc(-c3nc(Nc4ccc(N5CCCC(N(C)C)C5=O)cn4)ncc3F)cc21 (stereo not shown) [compound 300],< 0.01 µM
8,CC(C)c1cnn2ccc(-c3nc(Nc4ccc(S(C)(=O)=O)cc4)ncc3F)cc12 [compound 6],0.1 to 1 µM
9,CC(C)n1cnc2c(F)nc(-c3ccnc(Nc4ccc(N5CCN(CCF)CC5)cn4)n3)cc21 [compound 309],< 0.01 µM

# Now from value to compound:
row,IC50,Compound
1,< 0.01 µM,CNC1CCCN(c2ccc(Nc3nccc(-c4ccn5ncc(C(C)(C)C)c5c4)n3)nc2)C1=O (stereo not shown) [compound 221]
2,< 0.01 µM,CC(C)(C)c1cnn2ccc(-c3ccnc(Nc4ccc(N5CCCC(N)C5=O)cn4)n3)cc12 (stereo not shown) [compound 220]
3,< 0.01 µM,CC1(C)COc2c(F)cc(-c3ccnc(Nc4ccc(N5CCCC(N)C5=O)cc4)n3)cc21 (stereo not shown) [compound 263]
4,< 0.01 µM,CC(C)c1cnn2ccc(-c3ccnc(Nc4ccc(N5CCCC(N(C)C)C5=O)cc4)n3)cc12 (stereo not shown) [compound 174]
5,< 0.01 µM,CNC1CCCN(c2ccc(Nc3nccc(-c4ccn5ncc(C(C)C)c5c4)n3)nc2)C1=O (stereo not shown) [compound 208]
6,< 0.01 µM,CC(C)c1cnn2ccc(-c3ccnc(Nc4ccc(N5CCC(NCCF)CC5=O)cn4)n3)cc12 (stereo not shown) [compound 201]
7,< 0.01 µM,CC(C)n1cnc2c(F)nc(-c3ccnc(Nc4ccc(N5CCN(C6CC6)CC5)cn4)n3)cc21 [compound 267]
8,< 0.01 µM,CC(C)n1cnc2c(F)nc(-c3ccnc(Nc4ccc(N5CCC(N(C)C)C5=O)cc4)n3)cc21 (stereo not shown) [compound 268]
9,< 0.01 µM,CC(C)n1cnc2c1CN(c1nc(Nc3ccc(N4CCCC(N(C)C)C4)cc3)ncc1F)CC2 (stereo not shown) [compound 252]
10,< 0.01 µM,CNC1CCCN(c2ccc(Nc3nccc(-c4cc5c(ncn5C(C)C)c(F)n4)n3)cc2)C1=O (stereo not shown) [compound 294]

# Same assay, conditions: comparative compound
row,Compound,IC50
1,"C=CC(=O)Nc1cc(Nc2ncc(F)c(-c3ccn4nc(C)c(C)c4c3)n2)c(OC)cc1N(C)CCN(C)C [Compound 10 disclosed in CN109503573A, reference compound]",> 10 µM

# Target: T3, CDK6/CyclinD3 (Homo sapiens, UniProt Q00534)
# T3 construct: purchased Carna 04-107
# Experiment: Assay for inhibition of CDK6/CyclinD3 (Caliper microfluidic kinase assay)
# Assay type: biochemical
# Details: CDK6/CyclinD3
# Procedure: The CDK6 enzyme assay for IC50 determination was performed as follows. Microfluidic kinase detection technology (Caliper) was used to monitor the phosphorylation of peptide substrate by CDK6/CyclinD3. The total reaction volume is 15 μL containing buffer A (100 mM HEPES (pH 7.5), 0.1% BSA, 0.01% Triton X-100, 1 mM DTT, 10 mM MgCl2, 10 μM Sodium Orthovanadate, 10 μM Beta-Glycerophosphate), 300 μM ATP, 2 nM CDK6/CyclinD3 (Carna, 04-107), 1 μM FL-34 (5-FAM-[…]), and the test compound at appropriate dilutions in DMSO. All components were added to the 384-well plate (Corning, 4514), and incubated at Room Temperature for 3 hours. The reaction was terminated by addition of 15 μL Stop Buffer (180 mM HEPES (pH 7.5), 20 mM EDTA, Coating-3 reagent (PerkinElmer, 760050)). The plate was then loaded on Caliper EZ Reader (EZ Reader II, PerkinElmer, HD-4HYSG2772), and the reaction mixtures including substrate and product were sipped into the microfluidic chip for separation and detection. The IC50 values of the test compound were determined by fitting the inhibition curves by 4 parameter sigmoidal dose-response model using the Xlfit5/GraphPad Prism 5 software.
# T3 sequence (Q00534 whole entry): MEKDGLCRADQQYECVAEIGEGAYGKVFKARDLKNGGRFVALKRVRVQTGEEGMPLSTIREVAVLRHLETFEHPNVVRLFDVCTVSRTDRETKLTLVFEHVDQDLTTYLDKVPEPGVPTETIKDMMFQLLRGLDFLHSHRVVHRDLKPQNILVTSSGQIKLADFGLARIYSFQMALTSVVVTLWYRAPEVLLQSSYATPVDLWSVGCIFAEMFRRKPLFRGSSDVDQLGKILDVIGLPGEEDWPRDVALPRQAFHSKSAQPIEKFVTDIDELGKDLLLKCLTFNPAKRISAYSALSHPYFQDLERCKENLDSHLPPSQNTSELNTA
# T3 sequence (P30281 whole entry partner): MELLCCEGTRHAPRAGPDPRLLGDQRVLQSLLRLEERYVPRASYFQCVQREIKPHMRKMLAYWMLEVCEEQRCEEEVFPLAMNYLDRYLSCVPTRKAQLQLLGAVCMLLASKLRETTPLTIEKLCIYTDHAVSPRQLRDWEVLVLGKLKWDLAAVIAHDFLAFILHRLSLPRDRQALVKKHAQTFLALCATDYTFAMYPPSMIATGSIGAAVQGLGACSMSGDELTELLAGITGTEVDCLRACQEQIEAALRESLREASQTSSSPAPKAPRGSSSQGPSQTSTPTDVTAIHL
row,Compound,IC50
1,COc1nc(-c2nc(Nc3ccc(CN4CCN5CCCC5C4)cn3)ncc2F)cc2c1nc(C)n2C(C)C (stereo not shown) [compound 101],0.01 to 0.1 µM

# Same assay, conditions: CDK6/CyclinD3, 300 μM ATP
row,Compound,IC50
1,CCN1CCN(Cc2ccc(Nc3ncc(F)c(-c4ccn5ncc(C(C)C)c5c4)n3)nc2)CC1 [compound 22],0.01 to 0.1 µM
2,C=C(C)c1cnn2ccc(-c3nc(Nc4ccc(CN5CCN(CC)CC5)cn4)ncc3F)cc12 [compound 19],0.1 to 1 µM
3,CCN1CCN(Cc2ccc(Nc3ncc(F)c(-c4ccn5ncc(Br)c5c4)n3)nc2)CC1 [compound 20],> 1 µM
4,CC(C)c1cnn2ccc(-c3ccnc(Nc4ccc(N5CCNCC5=O)nc4)n3)cc12 [compound 35],0.01 to 0.1 µM
5,O=C1COCCN1c1ccc(Nc2ncc(F)c(-c3ccn4ncc(C5=CCOCC5)c4c3)n2)nc1 [compound 17],0.1 to 1 µM

# Same assay, conditions: comparative compound
row,Compound,IC50
1,"C=CC(=O)Nc1cc(Nc2ncc(F)c(-c3ccn4nc(C)c(C)c4c3)n2)c(OC)cc1N(C)CCN(C)C [Compound 10 disclosed in CN109503573A, reference compound]",> 10 µM
